Reference: patent US9351956B1, “Pharmaceutical composition comprising an enantiomer of lipoamide and derivatives thereof and method of use” (GeroNova Research Inc., priority 2012, dated 2016)

What was measured:
Format in all cases: cell-based
Settings in all cases: HepG2 cells, 0.2 mM, 8 hours, 5.5 mM glucose
[1] = system: retinoic acid response element (RAR); assay: dual-luciferase reporter array, RAR
Method: (§1) Nine test compounds were synthesized and characterized. The effects of R, S and RS forms of LA, LAM and LAP on multiple signaling pathways were studied in HepG2 cells at 0.2 mM for 8 hours (5.5 mM glucose) using a dual-luciferase reporter array. The reporter is a mixture of Firefly Luciferase gene construct under control of an inducible transcription factor-responsive promoter and an internal control plasmid constitutively expressing Renilla luciferase gene. Each inducible construct monitors changes in the activity of a select transcription factor serving as a marker for activation or suppression of a specific signaling pathway.

PI3K/AKT = assay: dual-luciferase reporter array, FOXO reporter as inverse marker for PI3K/AKT
Method: as §1
This above studies identified previously unknown enantioselective and non-enantioselective pathways differentially affected by LA and amide derivatives. In some cases the racemic compounds activate pathways not activated by either enantiomer. […] The heavy metal response pathway was similarly affected by all nine compounds, which lowered values below control levels. […] The greatest increase in activity of a pathway by all compounds was activation of the Antioxidant Response Element (ARE) but the magnitude varied widely by compound. […] Activation of FOXO transcription factors is repressed by AKT phosphorylation and thus functions as an inverse marker for PI3K/AKT activity, such that low pathway activity increases the magnitude of the FOXO reporter.

C/EBP = assay: dual-luciferase reporter array, C/EBP
Method: as §1

[2] = system: Antioxidant Response Element (ARE); assay: dual-luciferase reporter array, ARE
Method: as §1

[3] = system: progesterone receptor (PR); assay: dual-luciferase reporter array, PR
Method: as §1

[4] = system: peroxisome proliferator-activated receptor (PPAR); assay: dual-luciferase reporter array, PPAR
Method: as §1

heat shock factor (HSF) = assay: dual-luciferase reporter array, HSF
Method: as §1

[5] = system: xenobiotic response element (XRE); assay: dual-luciferase reporter array, XRE
Method: as §1

| SMILES | PI3K/AKT activation (inverse of FOXO reporter response) (PI3K/AKT) | XRE induction [5] | ARE response (activation) [2] | other results |
| --- | --- | --- | --- | --- |
| O=C(O)CCCC[C@@H]1CCSS1 [RLA, R-(+)-lipoic acid] | strongly activates | – | – | RAR activation [1]: selectively activates; C/EBP activation (C/EBP): selectively activates |
| NC(=O)CCCC[C@@H]1CCSS1 [RLAM, R-(+)-lipoamide] | – | – | strongest ARE response | PR activation [3]: selectively activates |
| O=C(O)CCCC[C@H]1CCSS1 [SLA, S-(−)-lipoic acid] | minimal | – | – | PPAR activity [4]: lowered |

More lines, main results first:

| PI3K/AKT activation (inverse of FOXO reporter response) (PI3K/AKT) | XRE induction [5] | SMILES | ARE response (activation) [2] | other results |
| --- | --- | --- | --- | --- |
| – | induced | NC(=O)CCCC[C@H]1CCSS1 [SLAM, S-(−)-lipoamide] | activated | HSF activation (heat shock factor (HSF)): activated |
| – | induced | CN(C)CCNC(=O)CCCC[C@H]1CCSS1 [SLAP] | – | – |
